From PMC8292346, “Dysfunction of the key ferroptosis-surveilling systems hypersensitizes mice to tubular necrosis during acute kidney injury” (Nature Communications, 2021)
Where “and” joins values, the source holds several entries; their conditions need not be identical. Identical values can stand only once.

Experiments:
[1] = system: NIH3T3 cells; assay: TZ-induced necroptosis, 7-AAD/annexin V flow cytometry; assay type: cell-based, murine; settings: NIH3T3, TZ 16 h
Procedure: To induce necroptosis in a human cell line, HT29 cells were stimulated at the indicated time points with 20 ng/ml human TNFα (Biolegend), 1 μM SMAC-mimetics (Birinapant, Chemietek), and 20 μM zVAD-fmk (Selleckchem, herein referred to as zVAD). For the induction of necroptosis in NIH3T3 cells, cells were incubated with 20 ng/ml TNF-α and 20 μM zVAD for indicated time points. […] Cells were seeded in six-well plates or petri dishes. […] After indicated time points, cells were collected and prepared for flow cytometry, immunoblotting, and/or LDH release assays.
Cells were harvested and the pellets were washed twice in PBS and stained with 5 μl of 7-AAD (BD Biosciences) and 5 μl of annexin-V-FITC (BD Biosciences) added to 100 μl annexin-V binding buffer (BD Biosciences). After 15 min, cells were recorded on the LSRII with the FACS Diva 6.1.1 software (BD Biosciences) and subsequently analyzed with the FlowJo v10 software (Tree Star).

[2] = target: indoleamine 2,3-dioxygenase (IDO) (Homo sapiens, UniProt P14902); assay: IDO assay (formation of N-formyl-kynurenine from L-tryptophan); settings: read-out: IDO (h): inhibition
Sequence of indoleamine 2,3-dioxygenase (IDO) (P14902 whole entry): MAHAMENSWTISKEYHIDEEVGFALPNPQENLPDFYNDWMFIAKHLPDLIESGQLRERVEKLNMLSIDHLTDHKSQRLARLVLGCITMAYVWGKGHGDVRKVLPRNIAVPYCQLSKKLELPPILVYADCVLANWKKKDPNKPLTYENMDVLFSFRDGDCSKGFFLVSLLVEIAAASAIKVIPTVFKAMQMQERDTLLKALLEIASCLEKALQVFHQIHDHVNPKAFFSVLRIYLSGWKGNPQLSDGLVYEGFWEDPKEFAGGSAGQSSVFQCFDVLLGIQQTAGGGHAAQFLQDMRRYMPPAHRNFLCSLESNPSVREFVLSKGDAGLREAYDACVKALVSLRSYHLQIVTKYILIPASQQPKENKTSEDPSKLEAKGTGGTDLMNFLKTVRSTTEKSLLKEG

[3] = target: norepinephrine transporter(h) (Homo sapiens, UniProt P23975); assay: Off-target radioligand binding screen; settings: read-out: norepinephrine transporter(h) ($): inhibition of radioligand binding
Sequence of norepinephrine transporter(h) (P23975 whole entry): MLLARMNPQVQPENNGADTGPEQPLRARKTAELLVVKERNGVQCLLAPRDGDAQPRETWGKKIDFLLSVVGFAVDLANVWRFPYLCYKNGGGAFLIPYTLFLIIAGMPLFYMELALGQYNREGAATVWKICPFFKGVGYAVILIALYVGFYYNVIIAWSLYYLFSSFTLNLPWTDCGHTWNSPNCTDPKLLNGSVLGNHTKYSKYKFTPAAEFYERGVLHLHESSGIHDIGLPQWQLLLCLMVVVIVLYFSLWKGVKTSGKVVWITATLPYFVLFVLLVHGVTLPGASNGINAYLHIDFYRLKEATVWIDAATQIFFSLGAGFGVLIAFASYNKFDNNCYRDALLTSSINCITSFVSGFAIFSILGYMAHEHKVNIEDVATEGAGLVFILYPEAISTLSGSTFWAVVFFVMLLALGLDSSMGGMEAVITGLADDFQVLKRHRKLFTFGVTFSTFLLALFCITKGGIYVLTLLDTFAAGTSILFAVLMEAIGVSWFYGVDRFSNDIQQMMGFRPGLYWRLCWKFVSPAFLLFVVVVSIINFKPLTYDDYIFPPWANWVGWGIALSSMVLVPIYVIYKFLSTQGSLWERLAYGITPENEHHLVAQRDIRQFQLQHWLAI

[4] = target: CCK1 (CCKA) (h) (Homo sapiens, UniProt P32238); assay: Off-target radioligand binding screen; settings: read-out: CCK1 (CCKA) (h) (#): inhibition of radioligand binding
Sequence of CCK1 (CCKA) (h) (P32238 whole entry): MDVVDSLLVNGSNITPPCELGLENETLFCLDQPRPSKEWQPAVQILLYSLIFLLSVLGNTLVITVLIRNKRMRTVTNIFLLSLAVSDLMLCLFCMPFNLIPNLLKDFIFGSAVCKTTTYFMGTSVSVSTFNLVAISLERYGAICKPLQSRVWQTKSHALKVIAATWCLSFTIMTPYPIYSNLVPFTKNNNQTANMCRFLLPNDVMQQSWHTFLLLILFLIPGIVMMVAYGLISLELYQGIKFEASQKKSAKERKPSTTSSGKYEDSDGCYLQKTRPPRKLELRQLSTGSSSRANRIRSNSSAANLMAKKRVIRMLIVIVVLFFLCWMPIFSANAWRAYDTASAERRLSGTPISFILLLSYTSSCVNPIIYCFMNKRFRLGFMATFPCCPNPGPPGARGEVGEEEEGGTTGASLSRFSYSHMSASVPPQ

[5] = target: H1(h) (Homo sapiens, UniProt P35367); assay: Off-target radioligand binding screen; settings: read-out: H1(h) ($): inhibition of radioligand binding
Sequence of H1(h) (P35367 whole entry): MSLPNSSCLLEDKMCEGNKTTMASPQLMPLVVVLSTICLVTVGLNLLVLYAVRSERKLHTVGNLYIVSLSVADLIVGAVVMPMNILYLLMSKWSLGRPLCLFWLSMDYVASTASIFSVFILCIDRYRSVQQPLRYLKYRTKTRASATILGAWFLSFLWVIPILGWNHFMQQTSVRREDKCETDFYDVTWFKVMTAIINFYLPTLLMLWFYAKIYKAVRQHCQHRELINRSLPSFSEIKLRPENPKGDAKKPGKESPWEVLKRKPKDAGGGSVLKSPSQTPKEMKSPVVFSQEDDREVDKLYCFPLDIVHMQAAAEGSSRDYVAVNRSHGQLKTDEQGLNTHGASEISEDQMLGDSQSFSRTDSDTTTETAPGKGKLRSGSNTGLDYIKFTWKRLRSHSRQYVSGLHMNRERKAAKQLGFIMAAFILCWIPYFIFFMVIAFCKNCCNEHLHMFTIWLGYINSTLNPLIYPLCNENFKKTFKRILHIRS

[6] = Stability in human plasma; assay type: in vitro ADME; settings: 1 µM, 37 °C
Procedure: Plasma stability is defined as the percentage of parent compound remaining in plasma over the time. Here, incubations were carried out in 5 aliquots of 70 µl each (one for each time point), in duplicates. […] The percentage of the test compounds remaining after incubation in plasma and their half-lives (T1/2) was calculated.

[7] = Inhibited co-autoxidation of cumene and STY-BODIPY (radical-trapping antioxidant activity); settings: AIBN-initiated; even at 5-fold higher concentration than PMC
[8] = target: H2(h) (Homo sapiens, UniProt P25021); assay: Off-target radioligand binding screen; settings: read-out: H2(h) ($): inhibition of radioligand binding
Sequence of H2(h) (P25021 whole entry): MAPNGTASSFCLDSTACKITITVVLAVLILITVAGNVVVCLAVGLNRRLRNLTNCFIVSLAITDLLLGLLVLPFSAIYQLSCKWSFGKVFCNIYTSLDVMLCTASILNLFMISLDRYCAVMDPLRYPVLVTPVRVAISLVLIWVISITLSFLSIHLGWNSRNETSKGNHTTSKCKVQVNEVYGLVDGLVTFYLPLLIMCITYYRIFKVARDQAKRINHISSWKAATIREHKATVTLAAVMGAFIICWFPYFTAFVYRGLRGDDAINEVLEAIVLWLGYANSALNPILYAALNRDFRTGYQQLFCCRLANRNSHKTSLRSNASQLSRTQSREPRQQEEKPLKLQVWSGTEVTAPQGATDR

[9] = target: α1A(h) (Homo sapiens, UniProt P35348); assay: Off-target radioligand binding screen; settings: read-out: α1A(h) ($): inhibition of radioligand binding
Sequence of α1A(h) (P35348 whole entry): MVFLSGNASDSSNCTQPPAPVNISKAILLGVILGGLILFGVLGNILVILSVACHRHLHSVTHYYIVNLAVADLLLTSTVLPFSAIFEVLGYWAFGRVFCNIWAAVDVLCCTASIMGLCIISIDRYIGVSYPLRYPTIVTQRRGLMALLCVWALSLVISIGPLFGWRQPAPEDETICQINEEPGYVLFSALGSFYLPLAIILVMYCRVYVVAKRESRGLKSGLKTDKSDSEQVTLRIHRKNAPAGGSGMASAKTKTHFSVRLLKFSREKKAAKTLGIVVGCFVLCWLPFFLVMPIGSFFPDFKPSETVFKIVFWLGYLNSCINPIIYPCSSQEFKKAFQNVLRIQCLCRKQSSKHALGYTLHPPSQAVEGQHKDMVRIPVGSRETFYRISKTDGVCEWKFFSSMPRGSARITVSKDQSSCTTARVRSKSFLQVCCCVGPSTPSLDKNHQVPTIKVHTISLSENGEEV

[10] = target: CB1(h) (Homo sapiens, UniProt P21554); assay: Off-target radioligand binding screen; settings: read-out: CB1(h) (#): inhibition of radioligand binding
Sequence of CB1(h) (P21554 whole entry): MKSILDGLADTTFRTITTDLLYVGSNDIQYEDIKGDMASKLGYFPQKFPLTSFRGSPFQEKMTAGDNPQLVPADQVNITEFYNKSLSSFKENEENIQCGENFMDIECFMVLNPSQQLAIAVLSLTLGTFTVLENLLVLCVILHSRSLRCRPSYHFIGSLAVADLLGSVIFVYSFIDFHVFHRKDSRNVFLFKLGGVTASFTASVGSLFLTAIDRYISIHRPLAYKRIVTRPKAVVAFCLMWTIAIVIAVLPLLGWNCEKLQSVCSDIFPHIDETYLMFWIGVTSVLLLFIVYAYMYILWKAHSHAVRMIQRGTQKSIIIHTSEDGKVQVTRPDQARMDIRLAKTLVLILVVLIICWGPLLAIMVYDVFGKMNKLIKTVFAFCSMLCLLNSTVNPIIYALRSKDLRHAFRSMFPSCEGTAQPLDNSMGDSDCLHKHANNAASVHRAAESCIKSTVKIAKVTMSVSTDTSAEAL

[11] = target: δ (DOP) (h) (Homo sapiens, UniProt P41143); assay: Off-target radioligand binding screen; settings: read-out: δ (DOP) (h) (#): inhibition of radioligand binding
Sequence of δ (DOP) (h) (P41143 whole entry): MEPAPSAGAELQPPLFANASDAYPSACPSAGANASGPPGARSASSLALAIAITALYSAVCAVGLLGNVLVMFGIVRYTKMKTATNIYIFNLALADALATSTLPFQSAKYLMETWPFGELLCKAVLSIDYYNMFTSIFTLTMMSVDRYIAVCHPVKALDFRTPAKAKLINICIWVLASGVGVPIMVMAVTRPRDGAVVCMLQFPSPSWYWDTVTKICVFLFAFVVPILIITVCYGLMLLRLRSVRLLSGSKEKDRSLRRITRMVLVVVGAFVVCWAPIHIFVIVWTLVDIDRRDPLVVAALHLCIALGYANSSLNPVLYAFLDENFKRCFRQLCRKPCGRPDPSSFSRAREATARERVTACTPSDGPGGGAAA

[12] = system: BZD (central); assay: Off-target radioligand binding screen; settings: Nec-1f 10 µM
[13] = target: ETA(h) (Homo sapiens, UniProt P25101); assay: Off-target radioligand binding screen; settings: read-out: ETA(h) (#): inhibition of radioligand binding
Sequence of ETA(h) (P25101 21-427): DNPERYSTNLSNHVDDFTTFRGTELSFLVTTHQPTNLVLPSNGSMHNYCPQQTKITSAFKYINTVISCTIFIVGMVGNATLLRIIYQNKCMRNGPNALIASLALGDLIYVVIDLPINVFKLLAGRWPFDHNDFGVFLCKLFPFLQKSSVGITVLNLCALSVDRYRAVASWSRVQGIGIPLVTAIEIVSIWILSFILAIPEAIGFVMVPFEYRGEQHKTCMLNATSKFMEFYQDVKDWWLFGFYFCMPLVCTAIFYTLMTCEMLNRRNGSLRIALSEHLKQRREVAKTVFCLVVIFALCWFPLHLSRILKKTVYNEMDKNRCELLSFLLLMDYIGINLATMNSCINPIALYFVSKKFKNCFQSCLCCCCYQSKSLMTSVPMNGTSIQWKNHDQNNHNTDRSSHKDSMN

Compound | 7-AAD/annexin V flow cytometry, source data of bar graph Fig2i [1] | inhibition at 10 µM [2] [%] | inhibition at 10 µM [3] [%] | inhibition at 10 µM [4] [%] | inhibition at 10 µM [5] [%] | Human plasma stability, parent compound remaining ([6]; 0 min) [%] | Human plasma stability, parent compound remaining ([6]; 20 min) [%] | Human plasma stability, parent compound remaining ([6]; 40 min) [%] | Human plasma stability, parent compound remaining ([6]; 60 min) [%] | Human plasma stability, parent compound remaining ([6]; 120 min) [%] | Radical-trapping activity in cumene/STY-BODIPY co-autoxidation [7] | inhibition at 10 µM [8] [%] | inhibition at 10 µM [9] [%] | inhibition at 10 µM [10] [%] | inhibition at 10 µM [11] [%] | BZD (central) (#): inhibition of radioligand binding [12] [%] | inhibition at 10 µM [13] [%]
CCOC(=O)c1ccc(NC2CCCCC2)c(N)c1 [Fer-1, ferrostatin-1] | 7.78% and 9.49% and 6.87% and 10.1% |  |  |  |  |  |  |  |  |  |  |  |  |  |  |  | 
CN1C(=O)C(Cc2c[nH]c3c(Cl)cccc23)NC1=S (centres unmarked) [Nec-1f] |  | 2 | 7.3 | 28.3 | 9.3 | 100 | 97 | 93 | 89 | 82 | no activity | -27.4 | 4.8 | -24.7 | 2.8 | -4.6 | 0.9
